According to patent US11427549B2, “Pyrimidinyloxy benzo-fused compounds as herbicides” (FMC Corporation, priority 2017, dated 2022):

What was measured:
[1] = test system: barnyardgrass (Echinochloa crus-galli); assay: Test A preemergence, barnyardgrass; type: in vivo; details: Echinochloa crus-galli, pre-emergence, 240 h, 0 to 100 scale (0 no effect, 100 complete control), read-out: Plant response rating, Barnyardgrass; for pest or weed control at 31 g/ha: 31 g ai/ha; for pest or weed control at 125 g/ha: 125 g ai/ha
[2] = test system: kochia (Kochia scoparia); assay: Test A preemergence, kochia; type: in vivo; details: Bassia scoparia, pre-emergence, 240 h, 0 to 100 scale (0 no effect, 100 complete control), read-out: Plant response rating, Kochia; for pest or weed control at 31 g/ha: 31 g ai/ha; for pest or weed control at 125 g/ha: 125 g ai/ha
[3] = test system: ragweed (common ragweed, Ambrosia elatior); assay: Test A preemergence, ragweed; type: in vivo; details: Ambrosia artemisiifolia, pre-emergence, 240 h, 0 to 100 scale (0 no effect, 100 complete control), read-out: Plant response rating, Ragweed; for pest or weed control at 31 g/ha: 31 g ai/ha; for pest or weed control at 125 g/ha: 125 g ai/ha
[4] = test system: ryegrass, Italian (Italian ryegrass, Lolium multiflorum); assay: Test A preemergence, ryegrass, Italian; type: in vivo; details: Lolium multiflorum, pre-emergence, 240 h, 0 to 100 scale (0 no effect, 100 complete control), read-out: Plant response rating, Ryegrass, Italian; for pest or weed control at 31 g/ha: 31 g ai/ha; for pest or weed control at 125 g/ha: 125 g ai/ha
[5] = test system: foxtail, giant (giant foxtail, Setaria faberii); assay: Test A preemergence, foxtail, giant; type: in vivo; details: Setaria faberi, pre-emergence, 240 h, 0 to 100 scale (0 no effect, 100 complete control), read-out: Plant response rating, Foxtail, Giant; for pest or weed control at 31 g/ha: 31 g ai/ha; for pest or weed control at 125 g/ha: 125 g ai/ha
[6] = test system: pigweed (Amaranthus retroflexus); assay: Test A preemergence, pigweed; type: in vivo; details: Amaranthus retroflexus, pre-emergence, 240 h, 0 to 100 scale (0 no effect, 100 complete control), read-out: Plant response rating, Pigweed; for pest or weed control at 31 g/ha: 31 g ai/ha; for pest or weed control at 125 g/ha: 125 g ai/ha
[7] = test system: barnyardgrass (Echinochloa crus-galli); assay: Test A postemergence, barnyardgrass; type: in vivo; details: Echinochloa crus-galli, post-emergence, 240 h, 0 to 100 scale (0 no effect, 100 complete control), read-out: Plant response rating, Barnyardgrass; for pest or weed control at 31 g/ha: 31 g ai/ha; for pest or weed control at 125 g/ha: 125 g ai/ha
[8] = test system: kochia (Kochia scoparia); assay: Test A postemergence, kochia; type: in vivo; details: Bassia scoparia, post-emergence, 240 h, 0 to 100 scale (0 no effect, 100 complete control), read-out: Plant response rating, Kochia; for pest or weed control at 31 g/ha: 31 g ai/ha; for pest or weed control at 125 g/ha: 125 g ai/ha
[9] = test system: ragweed (common ragweed, Ambrosia elatior); assay: Test A postemergence, ragweed; type: in vivo; details: Ambrosia artemisiifolia, post-emergence, 240 h, 0 to 100 scale (0 no effect, 100 complete control), read-out: Plant response rating, Ragweed; for pest or weed control at 31 g/ha: 31 g ai/ha; for pest or weed control at 125 g/ha: 125 g ai/ha
[10] = test system: ryegrass, Italian (Italian ryegrass, Lolium multiflorum); assay: Test A postemergence, ryegrass, Italian; type: in vivo; details: Lolium multiflorum, post-emergence, 240 h, 0 to 100 scale (0 no effect, 100 complete control), read-out: Plant response rating, Ryegrass, Italian; for pest or weed control at 31 g/ha: 31 g ai/ha; for pest or weed control at 125 g/ha: 125 g ai/ha
[11] = test system: pigweed (Amaranthus retroflexus); assay: Test A postemergence, pigweed; type: in vivo; details: Amaranthus retroflexus, post-emergence, 240 h, 0 to 100 scale (0 no effect, 100 complete control), read-out: Plant response rating, Pigweed; for pest or weed control at 31 g/ha: 31 g ai/ha; for pest or weed control at 125 g/ha: 125 g ai/ha
[12] = test system: wheat (Triticum aestivum); assay: Test A postemergence, wheat; type: in vivo; details: Triticum aestivum, post-emergence, 240 h, 0 to 100 scale (0 no effect, 100 complete control), read-out: Plant response rating, Wheat; for plant injury at 31 g/ha: 31 g ai/ha; for plant injury at 125 g/ha: 125 g ai/ha
[13] = test system: corn (Zea mays); assay: Test A postemergence, corn; type: in vivo; details: Zea mays, post-emergence, 240 h, 0 to 100 scale (0 no effect, 100 complete control); for Corn plant response rating (crop injury, 0 = no effect, 100 = complete kill) at 31 g/ha: 31 g ai/ha; for Corn plant response rating (crop injury, 0 = no effect, 100 = complete kill) at 125 g/ha: 125 g ai/ha
[14] = test system: blackgrass (Alopecurus myosuroides); assay: Test A postemergence, blackgrass; type: in vivo; details: Alopecurus myosuroides, post-emergence, 240 h, 0 to 100 scale (0 no effect, 100 complete control), read-out: Plant response rating, Blackgrass; for pest or weed control at 31 g/ha: 31 g ai/ha; for pest or weed control at 125 g/ha: 125 g ai/ha
[15] = test system: galium (catchweed bedstraw, Galium aparine); assay: Test A postemergence, galium; type: in vivo; details: Galium, post-emergence, 240 h, 0 to 100 scale (0 no effect, 100 complete control), read-out: Plant response rating, Galium; for pest or weed control at 31 g/ha: 31 g ai/ha; for pest or weed control at 125 g/ha: 125 g ai/ha
[16] = test system: rice (Oryza sativa); assay: Test B flooded paddy test, rice; details: Oryza sativa, read-out: Plant response rating, Rice (0 to 100 scale, 0 is no effect, 100 is complete control)
[17] = test system: ducksalad (Heteranthera limosa); assay: Test B flooded paddy test, ducksalad; details: Heteranthera limosa, read-out: Plant response rating, Ducksalad (0 to 100 scale, 0 is no effect, 100 is complete control)
[18] = test system: barnyardgrass (Echinochloa crus-galli); assay: Test B flooded paddy test, barnyardgrass; details: Echinochloa crus-galli, read-out: Plant response rating, Barnyardgrass (0 to 100 scale, 0 is no effect, 100 is complete control)

For `O=C1O[C@@H](CCC(F)(F)F)c2c(Oc3ncc(Cl)cn3)cccc21` [Compound 18, (3S)-4-[(5-Chloro-2-pyrimidinyl)oxy]-3-(3,3,3-trifluoropropyl)-1(3H)-isobenzofuranone], the pest or weed control at 31 g/ha [1] was 0%, the pest or weed control at 125 g/ha [1] was 0% and the pest or weed control at 31 g/ha [2] was 0%. It also gave a pest or weed control at 125 g/ha [2] of 0%, a pest or weed control at 31 g/ha [3] of 0% and a pest or weed control at 125 g/ha [3] of 0%. It also gave a pest or weed control at 31 g/ha [4] of 0%, a pest or weed control at 125 g/ha [4] of 0% and a pest or weed control at 31 g/ha [5] of 0%. The pest or weed control at 125 g/ha [5] was 0%, the pest or weed control at 31 g/ha [6] was 0% and the pest or weed control at 125 g/ha [6] was 0%. It also gave a pest or weed control at 31 g/ha [7] of 0%, a pest or weed control at 125 g/ha [7] of 0% and a pest or weed control at 31 g/ha [8] of 0%. For the same compound, the pest or weed control at 125 g/ha [8] was 10%, the pest or weed control at 31 g/ha [9] was 0% and the pest or weed control at 125 g/ha [9] was 0%. The pest or weed control at 31 g/ha [10] was 0%, the pest or weed control at 125 g/ha [10] was 0% and the pest or weed control at 31 g/ha [11] was 10%. For the same compound, the pest or weed control at 125 g/ha [11] was 20%, the plant injury at 31 g/ha [12] was 0% and the plant injury at 125 g/ha [12] was 0%. The Corn plant response rating (crop injury, 0 = no effect, 100 = complete kill) at 31 g/ha [13] was 0%, the Corn plant response rating (crop injury, 0 = no effect, 100 = complete kill) at 125 g/ha [13] was 10% and the pest or weed control at 31 g/ha [14] was 0%. The pest or weed control at 125 g/ha [14] was 0%, the pest or weed control at 31 g/ha [15] was 0% and the pest or weed control at 125 g/ha [15] was 10%. It also gave a plant injury at 250 g/ha [16] of 0%, a pest or weed control at 250 g/ha [17] of 0% and a pest or weed control at 250 g/ha [18] of 0%.
For `O=C1OCC(CCC(F)(F)F)c2c(Oc3ncc(Cl)cn3)cccc21` (stereo not drawn) [Compound 25, 5-[(5-Chloro-2-pyrimidinyl)oxy]-3,4-dihydro-4-(3,3,3-trifluoropropyl)-1H-2-benzopyran-1-one], the pest or weed control at 31 g/ha [1] was 0%, the pest or weed control at 125 g/ha [1] was 30% and the pest or weed control at 31 g/ha [2] was 0%. The pest or weed control at 125 g/ha [2] was 70%, the pest or weed control at 31 g/ha [3] was 0% and the pest or weed control at 125 g/ha [3] was 0%. It also gave a pest or weed control at 31 g/ha [4] of 0%, a pest or weed control at 125 g/ha [4] of 0% and a pest or weed control at 31 g/ha [5] of 20%. It also gave a pest or weed control at 125 g/ha [5] of 90%, a pest or weed control at 31 g/ha [6] of 10% and a pest or weed control at 125 g/ha [6] of 100%. The pest or weed control at 31 g/ha [7] was 0%, the pest or weed control at 125 g/ha [7] was 10% and the pest or weed control at 31 g/ha [8] was 30%. The pest or weed control at 125 g/ha [8] was 60%, the pest or weed control at 31 g/ha [9] was 0% and the pest or weed control at 125 g/ha [9] was 30%. For the same compound, the pest or weed control at 31 g/ha [10] was 0%, the pest or weed control at 125 g/ha [10] was 0% and the pest or weed control at 31 g/ha [11] was 30%. It also gave a pest or weed control at 125 g/ha [11] of 50%, a plant injury at 31 g/ha [12] of 0% and a plant injury at 125 g/ha [12] of 10%. The Corn plant response rating (crop injury, 0 = no effect, 100 = complete kill) at 31 g/ha [13] was 20%, the Corn plant response rating (crop injury, 0 = no effect, 100 = complete kill) at 125 g/ha [13] was 20% and the pest or weed control at 31 g/ha [14] was 20%. For the same compound, the pest or weed control at 125 g/ha [14] was 60%, the pest or weed control at 31 g/ha [15] was 30% and the pest or weed control at 125 g/ha [15] was 40%. The plant injury at 250 g/ha [16] was 0%, the pest or weed control at 250 g/ha [17] was 0% and the pest or weed control at 250 g/ha [18] was 0%.
Compound `FC(F)(F)CC[C@@H]1OCc2cccc(Oc3ncc(Cl)cn3)c21` [Compound 21, 5-Chloro-2-[[(3S)-1,3-dihydro-3-(3,3,3-trifluoropropyl)-4-isobenzofuranyl]oxy]-pyrimidine] has a pest or weed control at 31 g/ha [1] of 0%, a pest or weed control at 125 g/ha [1] of 20% and a pest or weed control at 31 g/ha [2] of 0%. It also gave a pest or weed control at 125 g/ha [2] of 0%, a pest or weed control at 31 g/ha [3] of 0% and a pest or weed control at 125 g/ha [3] of 0%. The pest or weed control at 31 g/ha [4] was 0%, the pest or weed control at 125 g/ha [4] was 0% and the pest or weed control at 31 g/ha [5] was 0%. For the same compound, the pest or weed control at 125 g/ha [5] was 0%, the pest or weed control at 31 g/ha [6] was 0% and the pest or weed control at 125 g/ha [6] was 0%. It also gave a pest or weed control at 31 g/ha [7] of 0%, a pest or weed control at 125 g/ha [7] of 20% and a pest or weed control at 31 g/ha [8] of 20%. It also gave a pest or weed control at 125 g/ha [8] of 60%, a pest or weed control at 31 g/ha [9] of 0% and a pest or weed control at 125 g/ha [9] of 10%. For the same compound, the pest or weed control at 31 g/ha [10] was 0%, the pest or weed control at 125 g/ha [10] was 0% and the pest or weed control at 31 g/ha [11] was 20%. For the same compound, the pest or weed control at 125 g/ha [11] was 50%, the plant injury at 31 g/ha [12] was 0% and the plant injury at 125 g/ha [12] was 0%. It also gave a Corn plant response rating (crop injury, 0 = no effect, 100 = complete kill) at 31 g/ha [13] of 0%, a Corn plant response rating (crop injury, 0 = no effect, 100 = complete kill) at 125 g/ha [13] of 20% and a pest or weed control at 31 g/ha [14] of 10%. The pest or weed control at 125 g/ha [14] was 30%, the pest or weed control at 31 g/ha [15] was 10% and the pest or weed control at 125 g/ha [15] was 30%. The plant injury at 250 g/ha [16] was 0%, the pest or weed control at 250 g/ha [17] was 70% and the pest or weed control at 250 g/ha [18] was 0%.
